Source: patent publication US11746100B2 (GLOBAL BLOOD THERAPEUTICS, INC., priority 2020, dated 2023)

These compounds were tested against T1, human ferroportin (Homo sapiens, UniProt Q9NP59) (assay: Biological in-vitro ferroportin internalization assay (luciferase reporter)). Details: average pEC50; stably-transfected CHO cell line expressing human ferroportin tagged to a luciferase reporter; 6 h incubation with test compound.
T1 construct: luciferase reporter (read with the Nano-Glo Luciferase Assay System); expressed in transfected cells; host or cells: CHO cells, stably transfected, expression induced with doxycycline
T1 sequence (Q9NP59 1-571): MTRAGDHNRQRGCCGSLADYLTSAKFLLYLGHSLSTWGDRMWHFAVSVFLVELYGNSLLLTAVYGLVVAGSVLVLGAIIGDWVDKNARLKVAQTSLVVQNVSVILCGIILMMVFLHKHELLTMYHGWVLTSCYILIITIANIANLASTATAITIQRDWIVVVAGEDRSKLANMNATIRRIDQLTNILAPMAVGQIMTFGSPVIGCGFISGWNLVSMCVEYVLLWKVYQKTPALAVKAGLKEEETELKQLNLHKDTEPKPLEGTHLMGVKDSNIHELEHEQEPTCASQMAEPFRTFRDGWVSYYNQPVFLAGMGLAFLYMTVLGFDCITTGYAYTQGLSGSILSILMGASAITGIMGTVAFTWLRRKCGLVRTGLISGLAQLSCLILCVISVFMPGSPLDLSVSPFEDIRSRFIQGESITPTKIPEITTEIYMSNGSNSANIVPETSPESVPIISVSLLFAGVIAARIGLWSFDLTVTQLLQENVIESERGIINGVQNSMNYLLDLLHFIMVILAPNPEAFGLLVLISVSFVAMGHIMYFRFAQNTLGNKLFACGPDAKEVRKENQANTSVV
Assay type: cell-based
In short: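 Read-out is Nano-Glo luciferase signal after 6 h compound exposure, with average pEC50 derived. Cells are a stable CHO line carrying luciferase-tagged human ferroportin, pre-loaded 24 h with ferric ammonium citrate and doxycycline-induced for 24 h.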

| Compound | pEC50 |
| --- | --- |
| CN(CC(=O)NC(C)(C)C)c1nc(-c2cc3ccccc3cn2)nc2c1CCC2 [Compound 165, N-tert-butyl-2-{[2-(isoquinolin-3-yl)-5H,6H,7H-cyclopenta[d]pyrimidin-4-yl](methyl)amino}acetamide] | 7.4 |
| COc1cc(-c2nc3c(c(N(C)CC(=O)Nc4ccc(C)nc4)n2)CCC3)ncc1F [Compound 306, 2-{[2-(5-fluoro-4-methoxypyridin-2-yl)-5H,6H,7H-cyclopenta[d]pyrimidin-4-yl](methyl)amino}-N-(6-methylpyridin-3-yl)acetamide] | 6.6 |
| CC(C(=O)NC(C)(C)C)N(c1ccccc1)c1nc(-c2ccccn2)nc2c1CCC2 (centres unmarked) [Compound 20, N-tert-butyl-2-{phenyl[2-(pyridin-2-yl)-5H,6H,7H-cyclopenta[d]pyrimidin-4-yl]amino}propanamide] | 6.7 |
| CN(CC(=O)Nc1ccc(F)nc1)c1nc(-c2cc3ccccc3cn2)nc2c1CCC2 [Compound 221, N-(6-fluoropyridin-3-yl)-2-{[2-(isoquinolin-3-yl)-5H,6H,7H-cyclopenta[d]pyrimidin-4-yl](methyl)amino}acetamide] | 7 |
| CC(C)NC(=O)CN(C)c1nc(-c2cc(OCC(C)(C)O)ccn2)nc2c1C(C)(C)CC2 [Compound 439, 2-({2-[4-(2-hydroxy-2-methylpropoxy)pyridin-2-yl]-5,5-dimethyl-5H,6H,7H-cyclopenta[d]pyrimidin-4-yl}(methyl)amino)-N-(propan-2-yl)acetamide] | 7.8 |
| C[C@H](C(=O)NC(C)(C)C)N(C)c1nc(-c2cc(OCCN(C)C)ccn2)nc2c1CCC2 [Compound 408, (2R)—N-tert-butyl-2-[(2-{4-[2-(dimethylamino)ethoxy]pyridin-2-yl}-5H,6H,7H-cyclopenta[d]pyrimidin-4-yl)(methyl)amino]propanamide] | 8.5 |
| COc1ccc(NC(=O)CN(C)c2nc(-c3cc(OCCF)ccn3)nc3c2CCC3)cn1 [Compound 242, 2-({2-[4-(2-fluoroethoxy)pyridin-2-yl]-5H,6H,7H-cyclopenta[d]pyrimidin-4-yl}(methyl)amino)-N-(6-methoxypyridin-3-yl)acetamide] | 7.7 |
| COc1ccc2cc(-c3nc4c(c(N(C)CC(=O)NC(C)(C)C)n3)CCC4)ncc2c1 [Compound 262, N-tert-butyl-2-{[2-(7-methoxyisoquinolin-3-yl)-5H,6H,7H-cyclopenta[d]pyrimidin-4-yl](methyl)amino}acetamide] | 7.1 |
| COc1ncc(NC(=O)CN(C)c2nc(-c3cc(OCCO)ccn3)nc3c2CCC3)cn1 [Compound 197, 2-({2-[4-(2-hydroxyethoxy)pyridin-2-yl]-5H,6H,7H-cyclopenta[d]pyrimidin-4-yl}(methyl)amino)-N-(2-methoxypyrimidin-5-yl)acetamide] | 7.4 |
| CN(CC(=O)NC(C)(C)C)c1nc(-c2c[nH]cn2)nc2c1CCC2 [Compound 182, N-tert-butyl-2-{[2-(1H-imidazol-4-yl)-5H,6H,7H-cyclopenta[d]pyrimidin-4-yl](methyl)amino}acetamide] | 7.6 |
| COc1ccc(NC(=O)CN(C)c2nc(-c3cc4ccccc4cn3)nc3c2CCC3)nc1 [Compound 233, 2-{[2-(isoquinolin-3-yl)-5H,6H,7H-cyclopenta[d]pyrimidin-4-yl](methyl)amino}-N-(5-methoxypyridin-2-yl)acetamide] | 7.4 |
| COc1ccc(NC(=O)CN(C)c2nc(-c3cc(OCCO)ccn3)nc3c2CCC3)cc1 [Compound 269, 2-({2-[4-(2-hydroxyethoxy)pyridin-2-yl]-5H,6H,7H-cyclopenta[d]pyrimidin-4-yl}(methyl)amino)-N-(4-methoxyphenyl)acetamide] | 8.4 |
| COc1ccc(NC(=O)CN(C)c2nc(-c3ccccn3)nc3c2CCC3)cc1 [Compound 75, N-(4-methoxyphenyl)-2-{methyl[2-(pyridin-2-yl)-5H,6H,7H-cyclopenta[d]pyrimidin-4-yl]amino}acetamide] | 7.5 |

Second part, the compound after the results:

| pEC50 | Compound |
| --- | --- |
| 6.1 | CN(CC(=O)NC(C)(C)C)c1nc(-c2cc(O)ccn2)nc2c1CCC2 [Compound 482, N-tert-butyl-2-{[2-(4-hydroxypyridin-2-yl)-5H,6H,7H-cyclopenta[d]pyrimidin-4-yl](methyl)amino}acetamide] |
| 8.8 | CC(C)NC(=O)CN(C)c1nc(-c2cc(OCCN3CCSCC3)ccn2)nc2c1CCC2 [Compound 505, 2-[methyl(2-{4-[2-(thiomorpholin-4-yl)ethoxy]pyridin-2-yl}-5H,6H,7H-cyclopenta[d]pyrimidin-4-yl)amino]-N-(propan-2-yl)acetamide] |
| 6.8 | COc1ccnc(-c2nc3c(c(N(C)CC(=O)NC4(C)CCOC4)n2)CCC3)c1 (centres unmarked) [Compound 146, 2-{[2-(4-methoxypyridin-2-yl)-5H,6H,7H-cyclopenta[d]pyrimidin-4-yl](methyl)amino}-N-(3-methyloxolan-3-yl)acetamide] |
| 6.5 | CN(CC(=O)NC1CCOCC1)c1nc(-c2ccccn2)nc2c1CCC2 [Compound 79, 2-{methyl[2-(pyridin-2-yl)-5H,6H,7H-cyclopenta[d]pyrimidin-4-yl]amino}-N-(oxan-4-yl)acetamide] |
| 8.2 | CN(CC(=O)Nc1ccc(Cl)cc1)c1nc(-c2cc(OCCO)ccn2)nc2c1CCC2 [Compound 339, N-(4-chloropehnyl)-2-({2-[4-(2-hydroxyethoxy)pyridin-2-yl]-5H,6H,7H-cyclopenta[d]pyrimidin-4-yl}(methyl)amino)acetamide] |
| 8.3 | CN(CC(=O)NC(C)(C)C)c1nc(-c2cc(OCCN3CC[C@@H](F)C3)ccn2)nc2c1CCC2 [Compound 473, N-tert-butyl-2-{[2-(4-{2-[(3R)-3-fluoropyrrolidin-1-yl]ethoxy}pyridin-2-yl)-5H,6H,7H-cyclopenta[d]pyrimidin-4-yl](methyl)amino}acetamide] |
| 6.6 | Clc1ccnc(-c2nc3c(c(N4CCCCCC4)n2)CCC3)c1 [Compound 96, 1-[2-(4-chloropyridin-2-yl)-5H,6H,7H-cyclopenta[d]pyrimidin-4-yl]azepane] |
| 7.4 | COC[C@@H](O)COc1ccnc(-c2nc3c(c(N(C)CC(=O)NC(C)C)n2)CCC3)c1 [Compound 448, 2-[(2-{4-[(2R)-2-hydroxy-3-methoxypropoxy]pyridin-2-yl}-5H,6H,7H-cyclopenta[d]pyrimidin-4-yl)(methyl)amino]-N-(propan-2-yl)acetamide] |
| 8.3 | CN(CC(=O)NC(C)(C)C)c1nc(-c2cc(OC[C@@H]3COC(C)(C)O3)ccn2)nc2c1CCC2 [Compound 414, N-tert-butyl-2-{[2-(4-{[(4R)-2,2-dimethyl-1,3-dioxolan-4-yl]methoxy}pyridin-2-yl)-5H,6H,7H-cyclopenta[d]pyrimidin-4-yl](methyl)amino}acetamide] |
| 7.7 | CN(CC(=O)N1CCCCCC1)c1nc(-c2cc(OC3COC3)ccn2)nc2c1CCC2 [Compound 358, 1-(azepan-1-yl)-2-[methyl({2-[4-(oxetan-3-yloxy)pyridin-2-yl]-5H,6H,7H-cyclopenta[d]pyrimidin-4-yl})amino]ethan-1-one] |
| 8.4 | CN(CC(=O)NC(C)(C)C)c1nc(-c2cc(OCC(O)C(F)(F)F)ccn2)nc2c1CCC2 (centres unmarked) [Compound 426, N-tert-butyl-2-[methyl({2-[4-(3,3,3-trifluoro-2-hydroxypropoxy)pyridin-2-yl]-5H,6H,7H-cyclopenta[d]pyrimidin-4-yl})amino]acetamide] |
| 7.9 | CN(CC(=O)Nc1cccc(F)c1)c1nc(-c2cc(OCCO)ccn2)nc2c1CCC2 [Compound 167, N-(3-fluorophenyl)-2-({2-[4-(2-hydroxyethoxy)pyridin-2-yl]-5H,6H,7H-cyclopenta[d]pyrimidin-4-yl}(methyl)amino)acetamide] |
| 7.4 | CN(CC(=O)NC1(C)CCCC1)c1nc(-c2cn(C)cn2)nc2c1CCC2 [Compound 161, 2-{methyl[2-(1-methyl-1H-imidazol-4-yl)-5H,6H,7H-cyclopenta[d]pyrimidin-4-yl]amino}-N-(1-methylcyclopentyl)acetamide] |
| 7.9 | CCN(CC(=O)NC(C)(C)C)c1nc(-c2cc(OC)ccn2)nc2c1CCC2 [Compound 126, N-tert-butyl-2-{ethyl[2-(4-methoxypyridin-2-yl)-5H,6H,7H-cyclopenta[d]pyrimidin-4-yl]amino}acetamide] |
| 7.7 | CN(CC(=O)NC1(C(F)(F)F)CC1)c1nc(-c2cc(OCC(C)(C)N(C)C)ccn2)nc2c1CCC2 [Compound 423, 2-[(2-{4-[2-(dimethylamino)-2-methylpropoxy]pyridin-2-yl}-5H,6H,7H-cyclopenta[d]pyrimidin-4-yl)(methyl)amino]-N-[1-(trifluoromethyl)cyclopropyl]acetamide] |
| 7.1 | CN(CC(=O)NC1(C(F)(F)F)CC1)c1nc(-c2cc(OC3COC3)ccn2)nc2c1CCC2 [Compound 338, 2-[methyl({2-[4-(oxetan-3-yloxy)pyridin-2-yl]-5H,6H,7H-cyclopenta[d]pyrimidin-4-yl})amino]-N-[1-(trifluoromethyl)cyclopropyl]aceta-mide] |
